Columns and labels:
[1] = biological target: T1, mutant LRRK2 (G2019S) (Homo sapiens, UniProt Q5S007, G2019S); experiment: Inhibitory activity against LRRK2: competition binding to ligand-affinity beads, DNA-tagged kinase quantitated by qPCR; settings: 100 nM compound; % of ctrl; read-out: Remaining kinase activity(%) at 100 nM LRRK2(G2019Smutant)
T1 construct: DNA tag for qPCR detection (not a peptide; the protein part that carries it is not described); made in house; host or cells: HEK 293 cells (the same paragraph also describes T7 phage grown in E. coli BL21)
T1 sequence (Q5S007 970-2527 G2019S): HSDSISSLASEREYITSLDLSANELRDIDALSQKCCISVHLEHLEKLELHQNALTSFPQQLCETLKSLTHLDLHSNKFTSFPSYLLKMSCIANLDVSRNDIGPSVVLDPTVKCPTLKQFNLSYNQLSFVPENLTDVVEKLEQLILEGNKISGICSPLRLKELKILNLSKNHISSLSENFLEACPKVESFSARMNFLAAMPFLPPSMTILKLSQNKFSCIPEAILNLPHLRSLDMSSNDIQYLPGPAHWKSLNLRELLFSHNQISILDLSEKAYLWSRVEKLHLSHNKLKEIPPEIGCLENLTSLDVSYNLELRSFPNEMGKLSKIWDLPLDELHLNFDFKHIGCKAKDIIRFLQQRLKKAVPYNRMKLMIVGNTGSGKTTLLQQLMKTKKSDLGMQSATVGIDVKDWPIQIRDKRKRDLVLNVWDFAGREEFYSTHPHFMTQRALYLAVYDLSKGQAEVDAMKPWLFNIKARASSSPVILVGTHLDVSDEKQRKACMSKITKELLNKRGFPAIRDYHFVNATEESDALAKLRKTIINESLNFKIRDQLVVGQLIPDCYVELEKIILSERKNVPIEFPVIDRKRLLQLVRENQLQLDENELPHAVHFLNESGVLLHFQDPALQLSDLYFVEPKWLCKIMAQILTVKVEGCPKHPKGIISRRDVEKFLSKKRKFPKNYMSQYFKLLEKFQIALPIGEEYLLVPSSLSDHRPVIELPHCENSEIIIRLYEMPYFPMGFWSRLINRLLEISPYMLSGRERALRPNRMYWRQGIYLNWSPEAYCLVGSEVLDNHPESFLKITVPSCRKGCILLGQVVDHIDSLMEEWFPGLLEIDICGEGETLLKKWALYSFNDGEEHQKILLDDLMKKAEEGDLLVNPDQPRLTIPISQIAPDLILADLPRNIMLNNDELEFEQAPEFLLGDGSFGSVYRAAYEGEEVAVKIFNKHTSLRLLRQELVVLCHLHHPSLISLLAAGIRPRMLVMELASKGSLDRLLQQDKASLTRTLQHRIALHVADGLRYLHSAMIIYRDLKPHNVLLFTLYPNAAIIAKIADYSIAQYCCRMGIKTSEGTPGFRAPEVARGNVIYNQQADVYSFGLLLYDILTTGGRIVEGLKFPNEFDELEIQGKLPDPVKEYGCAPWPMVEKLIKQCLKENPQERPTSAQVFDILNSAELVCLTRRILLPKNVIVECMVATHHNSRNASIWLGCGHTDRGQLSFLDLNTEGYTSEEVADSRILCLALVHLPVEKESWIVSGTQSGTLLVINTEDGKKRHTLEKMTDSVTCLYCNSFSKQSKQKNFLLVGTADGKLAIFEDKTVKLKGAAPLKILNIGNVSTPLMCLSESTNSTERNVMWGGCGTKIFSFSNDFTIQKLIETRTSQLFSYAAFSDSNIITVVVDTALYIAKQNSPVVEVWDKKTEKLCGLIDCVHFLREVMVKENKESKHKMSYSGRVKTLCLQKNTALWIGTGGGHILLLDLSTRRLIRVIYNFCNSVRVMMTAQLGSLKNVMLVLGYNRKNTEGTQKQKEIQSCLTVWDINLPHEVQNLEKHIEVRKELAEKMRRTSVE
How it was run: (§1)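 Human LRRK2 H970–E2527, wild type or G2019S, was expressed as DNA-tagged kinase (T7 phage in E. coli or HEK293) and competed for 1 h against a biotinylated ligand on streptavidin beads. Bound kinase was eluted with 0.5 µM free ligand and quantified by qPCR. Values are % of control at 100 nM (both forms) and at 10 and 50 nM (wild type).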

[2] = biological target: T2, wild-type LRRK2 (Homo sapiens, UniProt Q5S007); experiment: as above; settings: % of ctrl
T2 construct: DNA tag for qPCR detection (not a peptide; the protein part that carries it is not described); made in house; host or cells: HEK 293 cells (the same paragraph also describes T7 phage grown in E. coli BL21)
T2 sequence (Q5S007 970-2527): as the sequence (Q5S007 970-2527 G2019S) above, with S1050G counted along it
How it was run: as §1

[3] = Blood-brain barrier (BBB) penetration, LC-MS/MS of plasma and brain tissue after oral administration; type: in vivo; settings: oral 10 mg/kg, three hours after administration
Method: Test substances were each orally administered at a dose of 10 mg/kg. Three hours later, the animals were sacrificed and blood samples were immediately taken from the heart and centrifuged to obtain plasma samples. In order to remove the blood remaining in the body, 20 ml of saline containing 10 U/ml heparin were perfused through the heart, after which the brain was excised. The brain was homogenized together with three volumes of a PBS buffer. For quantitative analysis in the prepared plasma and brain tissue, advantage was taken of LC-MS/MS (Agilent, Santa Clara, Calif., USA). Separation in LC was conducted with a mobile phase consisting of 80% of acetonitrile and 20% of water containing 0.1% formic acid. For each substance, the eluting buffer was run for a total of 3 minutes at a flow rate of 0.3 ml/min. Each substance was quantitated using a multiple reaction monitoring method (for comparative compounds 4 and 5, the oral Parkinson's disease drugs DNL-151 and DNL-201 were used as LRRK2 protein inhibitors, respectively).

remaining binding at 0.1 µM [1]: < 10%
remaining binding at 0.01 µM ([2]; 10 nM compound, read-out: LRRK2(WT) Remaining kinase activity(%) at 10 nM): < 50%
remaining binding at 0.05 µM ([2]; 50 nM compound, read-out: LRRK2(WT) Remaining kinase activity(%) at 50 nM): < 30%
remaining binding at 0.1 µM ([2]; 100 nM compound, read-out: Remaining kinase activity(%) at 100 nM LRRK2(WT)): < 10%
effective concentration in the brain tissue, fold higher compared to comparative compound-4 (DNL-151) [3]: 1.64 fold
effective concentration in the brain tissue, fold higher compared to comparative compound-5 (DNL-201) [3]: 2.77 fold
SMILES: COc1cc(C(=O)N2CCOCC2)ccc1Nc1ncc(Cl)c(-c2cnn(C(C)C)c2)n1 [Compound 37, (4-((5-chloro-4-(1-isopropyl-1H-pyrazol-4-yl)pyrimidin-2-yl)amino)-3-methoxyphenyl)(morpholino)methanone]
